This is an account of results in ChEMBL document CHEMBL1142829, “Structure-antioxidant activity relationships of flavonoids isolated from the resinous exudate of Heliotropium sinuatum” (Bioorg Med Chem Lett, 2005).

The nature of this assay: Ratio between antioxidant activities determined employing ABTS and DPPH methods.
For `COc1cc(OC)c2c(=O)c(OC)c(-c3ccc(O)c(OC)c3)oc2c1`, the Ratio came to 125.

Regarding `COc1cc(O)cc2oc(-c3ccccc3)c(OC(C)=O)c(=O)c12`, the Ratio is 160.

With `COc1cc(O)cc2oc(-c3ccc(O)cc3)cc(=O)c12`, the Ratio is 143.

`COc1cc(-c2oc3cc(O)cc(OC)c3c(=O)c2OC)ccc1O`: the Ratio was 6.6.

In the case of `COc1cc(O)c2c(=O)cc(-c3ccc(O)c(O)c3)oc2c1`, the Ratio was 3.4.

Regarding `COc1c(-c2ccccc2)oc2cc(O)cc(OC)c2c1=O`, the Ratio amounted to 6.8.

Regarding `COc1cc(O)cc2oc(-c3ccccc3)cc(=O)c12`, the Ratio stood at 170.

With `COc1ccc(-c2cc(=O)c3c(OC)cc(O)cc3o2)cc1O`, the Ratio worked out at 126.
